# In patent US7732200B2, “Materials and methods for nerve grafting, selection of nerve grafts, and in vitro nerve tissue culture” (University of Florida Research Foundation, Inc., priority 2001, dated 2010):
# Tests used:
# [1] = tested on: MMP gelatinolytic activity; test: In situ zymography of cultured nerve explants; type: biochemical, rat; details: nerves cultured 2 days, 2% serum, in the presence of GM6001
# Procedure: In situ zymography for nerve predegeneration experiments. Cryosections (10 μm) of unfixed normal and cultured nerves were mounted on slides and overlaid with reaction buffer (50 mM Tris-HCl, 150 mM NaCl, 5 mM CaCl2, 0.2 mM sodium azide, pH 7.6) containing 20 μg/ml of intramolecularly quenched, fluorescein-labeled gelatin substrate (MOLECULAR PROBES INC., Eugene, Oreg.) (Oh et al., 1999). In the control condition, the MMP inhibitor EDTA (30 mM) was included in the reaction buffer. After incubation for 24 h at 37° C., the sections were rinsed with PBS and fixed with 4% paraformaldehyde in phosphate buffer. The sections were rinsed with water and mounted using Citifluor. Fluorescein-gelatin peptides generated by gelatinolytic activity in the tissue sections were observed and photographed by epifluorescence microscopy.
# The activity of MMPs is regulated by gene transcription, proenzyme activation and by the action of tissue inhibitors of metalloproteinases. The net gelatinolytic activity in nerve segments by in situ zymography was examined. Tissue sections were overlaid with quenched, fluorescein-gelatin, which is converted to fluorescent peptides by gelatinolytic activity within tissues. Constitutive gelatinolytic activity was detected in normal nerve mostly associated with Schwann cells aligned along the endoneurial basal lamina (as shown in FIGS. 17A and 17B). […]
# Schwann cell cultures = test: Treatment of isolated Schwann cell cultures; type: cell-based
# nerve segments = test: Dissociation culture (squash preparations) of cultured nerve segments; type: cell-based, rat; details: nerves cultured 2 days, 2% serum, with GM6001
structure (smiles),measurement,setting,value
CNC(=O)[C@H](Cc1c[nH]c2ccccc12)NC(=O)[C@@H](CC(=O)NO)CC(C)C [GM6001],gelatinolytic activity in nerve explants,[1],nearly undetectable
same,toxicity to isolated Schwann cell cultures,Schwann cell cultures,very low toxicity
same,cell viability of nerve segments (cell outgrowth),nerve segments,no loss of cell viability
